Measurements taken from US20070269384A1, “Use of perfluoroalkyl-containing metal complexes as contrast media for diagnosis of Alzheimer's disease” (priority 2006, published 2007).

How the values were obtained:
[1] = Proton relaxivity R1 in bovine plasma (Minispec P 20); type: physicochemical; conditions: in plasma at 40° C., magnetic field strength 0.47 Tesla
Experimental: As a third criterion for especially suitable MR contrast media, the proton relaxivity (relaxivity) in plasma (R1) at 40° C. and a field strength of 0.47 Tesla is used. The relaxivity, which is indicated in [l/mmol*s], is the quantitative measurement for the shortening of the relaxation time T1 of the protons. For the purpose according to the invention, the relaxivity must be as high as possible and must be >10 l/mmol*s, preferably >13 l/mmol*s, especially preferably >15 l/mmol*s.
The relaxivity R1 [l/mmol*s] of the MR contrast media according to the invention was determined with the Minispec P 20 device of the Bruker Company. The measurements were made at 40° C. and a field strength of 0.47 Tesla. 8 measuring points were recorded in each T1 sequence (180°-T1-90°, inversion recovery). As a medium, bovine plasma of the Kraeber Company was used. The contrast medium concentrations [mmol/l] in the preparations were between 0.30 and 1.16.

[2] = Hydrodynamic micelle diameter 2 Rh by photon-correlation spectroscopy; type: physicochemical
From the text: The amphiphilic compounds according to the invention are combined in solution and are present as aggregates. The size (2 Rh) of such aggregates (e.g., micelles, rods, oblates, etc.) can be determined with the aid of photon-correlation spectroscopy (PCS).
As a second criterion for preferably usable metal complexes, therefore, the hydrodynamic micelle diameter 2 Rh, which must be >1 nm, is used. Those perfluoroalkyl-containing metal complexes, whose 2 Rh≧3 nm, quite especially preferably >4 nm, are especially suitable according to the invention.
(§1) Both the determination of CMC and the photon correlation spectroscopy are described in H.-D. Dorfler, “Grenzflächen- and Kolloidchemie [Interface and Colloid Chemistry],” Weinheim, New York, Basel, Cambridge, Tokyo, VSH 1994.

[3] = Critical micelle formation concentration (CMC) by tensiometry; type: physicochemical
Experimental: In aqueous systems, these amphiphilic molecules show the properties that are characteristic of standard surfactants (such as, e.g., sodium dodecyl sulfate, SDS). Thus, they reduce the surface tension of the water. By tensiometry, the so-called CMC (critical micelle formation concentration in mol/l) can be determined. To this end, the surface tension is determined based on the concentration of the substance to be measured. The CMC can be calculated from the course of the surface tension (c) function that is obtained. The critical micelle formation concentration of the compounds according to the invention should be <10^−3 mol/l, preferably <10^−4 mol/l.
as §1

amyloid plaques = assay: MRT visualization of Alzheimer lesions after intravenous administration in APP-23 mice; type: in vivo; conditions: 0.5 mmol of Gd/kg i.v., up to 60 minutes after administration, 7T, localization confirmed by Puchtler's Congo red stain
Experimental: MRT Visualization of Alzheimer Lesions After Intravenous Administration of Contrast Medium in APP-23 Mice
The images of FIG. 1 show MR images of the brain before as well as up to 60 minutes after intravenous administration of 0.5 mmol of Gd/kg of body weight of metal complex 13 (MK13) in APP-23 mice (mice with genetically-induced Alzheimer's disease). […] The localization of the amyloid-containing structures was confirmed by means of Puchtler's Congo red stain. With this test, the suitability of the compounds according to the invention as in-vivo markers for amyloid plaques in the brains of mice with Alzheimer's disease could be shown.

| R1 (Relaxivity) [1] [L/mmol/s] | 2 Rh (Hydrodynamic Micelle Diameter) [2] [nm] | CMC (Critical Micelle Formation Concentration) [3] [mol/L] | Molecule | MR signal in the amyloid plaques of the diseased brains (T1-weighted spin echo images) (amyloid plaques) |
| --- | --- | --- | --- | --- |
| 15.9 | 4.4 | 2.5e-06 | CC(C(=O)NCC(=O)NCCCC[C@H](NC(=O)CO[C@H]1O[C@H](CO)[C@@H](O)[C@H](O)[C@@H]1O)C(=O)N1CCN(S(=O)(=O)C(F)(F)C(F)(F)C(F)(F)C(F)(F)C(F)(F)C(F)(F)C(F)(F)C(F)(F)F)CC1)N1CCN(CC(=O)[O-])CCN(CC(=O)[O-])CCN(CC(=O)[O-])CC1.[Gd+3] (stereo partly drawn) [MK 13, gadolinium complex of 6-N-[1,4,7-tris(carboxylatomethyl)-1,4,7,10-tetraazacyclododecane-10-N-(pentanoyl-3-aza-4-oxo-5-methyl-5-yl)]-2-N-[1-O-α-D-carbonylmethyl-manno-pyranose]-L-lysine-[1-(4-perfluorooctylsulfonyl)-piperazine]-amide] | strong signal increase |
| 19.5 | 2.2 | 0.00089 | gadolinium complex of 1,4,7-tris{1,4,7-tris(N-(carboxylatomethyl)-10-[N-1-methyl-3,6-diaza-2,5,8-trioxooctane-1,8-diyl)]-1,4,7,10-tetraazacyclododecane, Gd complex}-10-[N-2H, 2H, 4H, 4H, 5H, 5H-3-oxa-perfluoro-tridecanoyl]-1,4,7,10-tetraazacyclododecane [MK 12] | – |
